Source: patent US9963703B2, “Compositions and methods for treating pancreatic cancer” (Autotelic LLC, priority 2016, dated 2018)
In the oligonucleotide strings, read from the 5' end, every base follows the letter of its sugar. An asterisk marks phosphorothioate; unmarked linkages are phosphodiester. Other units and linkages are bracketed, terminal groups are in braces. A string of capitals states the bases alone. d = 2'-deoxy (DNA)

Key:
WiDr colon cancer cells = assay: Cellular proliferation of WiDr colon cancer cells in vitro; format: cell-based
Description: (§1) The aim of the study was to determine the effect of AP12009 (trabedersen) treatment in combination with 5-Fluorouracil (5-FU) on TGFβ2 secretion and on cellular proliferation of HUP-T3 pancreatic cancer cells and WiDr colon cancer cells in vitro.

TGFβ2 = TGFβ2 secretion/expression in HUP-T3 pancreatic cancer cells; format: cell-based
Description: as §1

A-172 glioma cells = assay: Migration of A-172 glioma cells; format: cell-based
Experimental: A-172 glioma cells were treated with a combination of AP12009 (trabedersen) 0 to 10 μM) and different concentrations of TMZ (temozolomide) for 7 days (treatment schedule 2*2/1*3 d).

[1] = Preclinical toxicology, LOAEL in Cynomolgus monkeys; format: in vivo
Experimental: (§2) The clinical starting dose for the 7-days-on and 7-days-off schedule was based on the Lowest-Observed-Adverse-Effect-Level (LOAEL) devoid of severe toxicity in Cynomolgus monkeys as the most relevant species. This LOAEL of 4 mg/kg body weight (b.w.)/day is equivalent to approximately 1.3 mg/kg b.w./day or 48 mg/m^2/day on a body surface area basis in human adults. These numbers were rounded down and the safe starting dose was defined at 40 mg/m^2/day, equivalent to approximately 1 mg/kg b.w./day in humans. An alternative approach would have been based on the lowest lethal dose (LLD) of 300 mg/kg b.w. obtained in the acute single dose toxicity study in mice (in rats it was determined at 1000 mg/kg), at which 1 of 10 mice died (LLD10). According to the standard method, 10% of this dose (30 mg/kg) on a body surface area basis would then be defined as the clinical starting dose resulting in 90 mg/m^2/day. In the end, the lower of the two alternatives was chosen as starting dose.

[2] = test system: HUP-T3 pancreatic cancer cells; assay: Cellular proliferation of HUP-T3 pancreatic cancer cells in vitro
Description: as §1

pancreatic cancer = assay: Phase I/II study P-001, efficacy (PFS, OS) in pancreatic cancer patients; format: in vivo, human
Experimental: At screening, up to 10 “measurable lesions” (i.e. lesions that could be accurately measured in at least 1 dimension with a longest diameter of 2 cm) representative of all involved organs were identified as “target lesions” for tumor response assessment and were measured and documented. All other lesions were defined and recorded as “non-target lesions”. Tumor response was determined by the local investigator every 8 weeks after start of the first trabedersen cycle during follow-up visits, irrespective of whether the patient was still on treatment or off treatment. The tumor assessment was based on Response Evaluation Criteria in Solid Tumors (RECIST 1.0) criteria. The categories of overall tumor response are as follows: (1) Complete response (CR): disappearance of all target and non-target lesions and normalization of tumor marker level; (2) Partial response (PR): at least 30% decrease in the sum of the longest diameter (LD) of target lesions (baseline sum LD as reference) and/or persistence of one or more non-target lesions and/or maintenance of tumor marker level above normal limits; (3) Stable disease (SD): less than 30% decrease or less than 20% increase in sum LD target lesions (smallest sum LD since treatment start as reference) and/or persistence of one or more non-target lesions and/or maintenance of tumor marker level above normal limits; (4) Progressive disease (PD) At least 20% increase in sum LD target lesions (smallest sum LD since treatment start as reference) and/or unequivocal progression of existing nontarget lesions and/or appearance of one or more new lesions; and (5) Unknown.
Progression-free survival (PFS) was defined as the time from Day 1 until tumor progression or death from any cause. The date of progression was either the date of the image showing progression or the date of treatment termination in case one of the reasons for treatment termination was tumor progression (referring to clinical progression as assessed by the Investigator), whichever occurred first.
Overall survival (OS) was defined as the time from Day 1 until death from any cause. All patients were followed for survival during the follow-up assessments every 8 weeks. The survival status was documented at the Final Visit (Day 29) and during the 8-weekly post-treatment follow-up assessments, and was continued to be collected after study closure until database lock or until the patient was lost to follow-up.
There were […] line patients and 11 third line and beyond on the 4 days on and 10 days off regimen. The PFS/OS (progression free survival/overall survival ratio) of these second line patients in months were: 1.87/5.60 (N=6), 1.87/9.93 (N=11) and 2.72/11.80 (N=5) at increasing mean dose of 140 mg/m^2/day, 167 mg/m^2/day, and 196 mg/m^2/day, respectively. The OS of 9.93 and 11.80 are higher than the highest reported in the 65 trials reported in the literature during 1997-2015 (range=2.50-9.20/median=5.50). The corresponding PFS values were in line with reported literature (range=0.00-7.65/median=2.43). […] Trabedersen itself was not having an impact on the tumor (FIG. 1).

[3] = Acute single dose toxicity study in mice; format: in vivo; settings: 1 of 10 mice died (LLD10)
Experimental: as §2

[4] = converted from Cynomolgus LOAEL
[5] = FIG. 1, trabedersen as second line treatment
[6] = second line pancreatic cancer patients, 4 days on/10 days off, mean dose 140 mg/m^2/day (N=6)
[7] = second line pancreatic cancer patients, 4 days on/10 days off, mean dose 167 mg/m^2/day (N=11)
[8] = second line pancreatic cancer patients, 4 days on/10 days off, mean dose 196 mg/m^2/day (N=5)

With “trabedersen: TGF-beta2 specific phosphorothioate antisense oligodeoxynucleotide with the sequence 5′-CGGCATGTCTATTTTGTA-3′ (SEQ ID No: 1) (antisense dC*dG*dG*dC*dA*dT*dG*dT*dC*dT*dA*dT*dT*dT*dT*dG*dT*dA)” the “cell proliferation, % of untreated control” value (WiDr colon cancer cells; 10 μM AP12009) was 76%, the “combination effect on cell proliferation” value (WiDr colon cancer cells; 10 μM AP12009 and 5-FU) was “sub-additive effects” and the “TGFβ2 expression, % of untreated control” value (TGFβ2; 10 μM AP12009 monotherapy) was 42%. The “combination effect on inhibition of TGFβ2 expression” value (TGFβ2; 5-FU added to 10 μM AP12009) was “sub-additive or even antagonistic effects”, the “effect on migration compared with untreated control” value (A-172 glioma cells; AP12009 10 μM monotherapy) was “did not affect migration” and the “effect of AP12009 on TMZ effect on migration” value (A-172 glioma cells; AP12009 in combination with TMZ) was “did not influence the effects of TMZ on migration”. For the same substance, the “Lowest-Observed-Adverse-Effect-Level (LOAEL) devoid of severe toxicity” value ([1]; Cynomolgus monkeys) was 4 mg/kg body weight (b.w.)/day, the “LOAEL, equivalent in human adults” value [1, 4] was “approximately 1.3 mg/kg b.w./day” and the “LOAEL, equivalent in human adults on a body surface area basis” value [1, 4] was roughly 48 mg/m^2/day. The “effect on proliferation of adding AP12009 to 5-FU compared with 5-FU alone” value [2] was “did not result in any additional inhibition of proliferation”, the “cell proliferation, % of untreated control” value ([2]; HUP-T3, 10 μM AP12009 monotherapy) was 53% and the OS (pancreatic cancer; 4/10 cohort treated with subsequent chemotherapies, p=0.0023, Log-rank) was 14.7 mos. For the same substance, the OS (pancreatic cancer; 4/10 cohort without subsequent chemotherapies) was 2.93 mos, the “OS compared to reported median OS” value (pancreatic cancer; [5]) was “higher than reported in the literature” and the “PFS compared to reported median PFS” value (pancreatic cancer; [5]) was “not significantly different”. The “effect on the tumor, as indicated by overall survival rate” value (pancreatic cancer; FIG. 3, trabedersen alone) was “does not have a significant effect on the tumor”, the “effect on overall survival rate” value (pancreatic cancer; FIG. 3, trabedersen therapy followed by chemotherapy) was “significant increase in the overall survival rate” and the OS (pancreatic cancer; chemotherapy on 2nd line followed by trabedersen 4/10 regimen as third line (N=9), p=0.046 vs trabedersen first) was 2.80 mos. For the same substance, the OS (pancreatic cancer; [6]) was 5.60 months, the PFS (pancreatic cancer; [6]) was 1.87 months and the OS (pancreatic cancer; [7]) was 9.93 months. The PFS (pancreatic cancer; [7]) was 1.87 months, the OS (pancreatic cancer; [8]) was 11.80 months and the PFS (pancreatic cancer; [8]) was 2.72 months. The OS (pancreatic cancer; trabedersen on 2nd line followed with subsequent therapies (N=11), p=0.046, Log-rank) was 9.93 mos and the “lowest lethal dose (LLD)” value [3] was 300 mg/kg b.w.
